Measurements taken from publication PMC4754833, “Rilpivirine analogs potently inhibit drug-resistant HIV-1 mutants” (Retrovirology, 2016).

Tests used:
HIV-1 RT mutant K103N = tested on: HIV-1 RT mutant K103N; set-up: method as in PMID 23217210; conditions: previous study; cited from earlier work
HIV-1 RT mutant H221Y = tested on: HIV-1 RT mutant H221Y; set-up: method as in PMID 23217210; conditions: previous study; cited from earlier work
[1] = tested on: HIV-1 RT mutant K101P/V179I; experiment: single round infection assay, K101P/V179I; format: cell-based; conditions: for IC50: Human immunodeficiency virus 1; for fold-change of IC50 of the mutant relative to WT: K101P/V179I vs WT
Protocol: (§1) The human osteosarcoma cell line, HOS, was obtained from Dr. Richard Schwartz (Michigan State University, East Lansing, MI) and grown in Dulbecco’s modified Eagle’s medium (Invitrogen, Carlsbad, CA) supplemented with 5 % (v/v) fetal bovine serum, 5 % newborn calf serum, and penicillin (50 units/ml) plus streptomycin (50 µg/ml; Quality Biological, Gaithersburg, MD). Virion production and single-round infectivity assays were used to determine antiviral activity (IC50 values) of the compounds as previously described.
(§2) pNLNgoMIVR-ΔEnv.LUC has been described previously. The RT open reading frame was removed from pNLNgoMIVR-ΔEnv.LUC (digestion with SpeI and SalI) and inserted between the SpeI and SalI sites of pBluescript II KS+. Using that construct as the wild-type template, we prepared the following HIV-1 RT mutants using the QuikChange II XL (Stratagene, La Jolla, CA) site-directed mutagenesis protocol kit: L100I, K103N, Y181C, Y188L, H221Y, K103N/Y181C, G190A, G190S, M230L, P236L, L100I/K103N, K103N/P225H, V106A/G190A/F227L, V106A, L234I, V106A/F227L, V106A/L234I, V106A/F227L/L234I, E40K, D67E, K101E, V111A, E138K, M184I, M184V, K101E/M184I, K101E/M184V, E138K/M184I, E138K/M184V, K101P, Y181I, and K101P/V179I. The following sense oligonucleotides were used with matching cognate antisense oligonucleotides (not shown) (Integrated DNA Technologies, Coralville, IA) in the mutagenesis: L100I, 5′-[…]-3′; L100I 2-103, 5′-[…]-3′; K103N, 5′-[…]-3′; Y181C, 5′-[…]-3′; Y188L, 5′-[…]-3′; H221Y, 5′-[…]-3′; G190A, 5′-[…]-3′; G190S, 5′-[…]-3′; P225H, 5′-[…]-3′; F227, 5′-[…]-3′; M230L, 5′-[…]-3′; P236L, 5′-[…]-3′; V106A, 5′-[…]-3′; L234I, 5′-[…]-3′; E40K, 5′-[…]-3′; D67E, 5′-[…]-3′; K101E, 5′-[…]-3′; V111A, 5′-[…]-3′; E138K, 5′-[…]-3′; M184I, 5′-[…]-3′; M184V, 5′-[…]-3′; K101P, 5′-[…]-3′; Y181I, 5′-[…]-3′; K101P/V179I, 5′-[…]-3′. The double mutants K103N/Y181C, K103N/P225H, and L100I/K103N were made using the previously generated K103N mutant and the appropriate oligonucleotides to add the second mutation, Y181C, P225, and L100I respectively. The double mutants V106A/F227L and V106A/L234I were prepared using the previously generated V106A mutant and the appropriate oligonucleotides to add the second mutation, F227L and L234I, respectively. The double mutants K101E/M184I and K101E/M184V were constructed using the previously generated K101E mutant and the appropriate oligonucleotides to add the second mutation, M184I and M184V, respectively. The double mutants E138K/M184I and E138K/M184V were constructed using the previously generated E138K mutant and the appropriate oligonucleotides for the second mutation, M184I and M184V, respectively. The triple mutant V106A/F227L/L234I was made using the previously generated V106A/F227L double mutant and the appropriate oligonucleotides for the third mutation, L234I. The triple mutant V106A/G190A/F227L was constructed in a series of steps using the previously generated V106A mutant and the appropriate oligonucleotides for the second mutation, G190A, to generate the double mutant V106A/G190A, and then the triple mutant was made using double mutant V106A/G190A and oligonucleotides for the third mutation, F227L. The DNA sequence of each construct was verified by DNA sequence determination. The sequences encoding the mutant RTs were then subcloned into pNLNgoMIVR-ΔEnv.LUC (between the KpnI and SalI sites) to produce the mutant HIV-1 constructs. These DNA sequences were also checked independently by DNA sequence determination.
(§3) 10.1186/s12977-016-0244-2 The IC50 values (nM) of RPV and the RPV analogs were determined against the NNRTI resistant mutants were measured by using a single round infection assay, n = 4. The concentrations (nM) are measured by reductions in luciferase reporter activity followed by the standard deviations. […]

HIV-1 RT mutant M230L = experiment: single round infection assay, M230L; format: cell-based; conditions: for IC50: ± SD, n=4, limit of detection 100 nM; for fold-change of IC50 of the mutant relative to WT: M230L vs WT
Protocol: as §1, §2, §3

HIV-1 RT mutant P236L = experiment: single round infection assay, P236L; format: cell-based; conditions: for IC50: Human immunodeficiency virus 1; for fold-change of IC50 of the mutant relative to WT: P236L vs WT
Protocol: as §1, §2, §3

WT HIV-1 = experiment: single round infection luciferase assay, WT HIV-1; format: cell-based; conditions: Human immunodeficiency virus 1
Protocol: as §1, §2, §3

HIV-1 RT mutant K101P = experiment: single round infection assay, K101P; format: cell-based; conditions: for IC50: Human immunodeficiency virus 1; for fold-change of IC50 of the mutant relative to WT: K101P vs WT
Protocol: as §1, §2, §3

[2] = tested on: HIV-1 RT mutant E138K/M184I; experiment: single round infection assay, E138K/M184I; format: cell-based; conditions: for fold-change of IC50 of the mutant relative to WT: E138K/M184I vs WT; for IC50: ± SD, n=4
Protocol: as §1, §2, §3

HIV-1 RT mutant D67E = experiment: single round infection assay, D67E; format: cell-based; conditions: for fold-change of IC50 of the mutant relative to WT: D67E vs WT; for IC50: ± SD, n=4
Protocol: as §1, §2, §3

HIV-1 RT mutant L100I = tested on: HIV-1 RT mutant L100I; set-up: method as in PMID 23217210; conditions: previous study; cited from earlier work
HIV-1 RT mutant Y181I = experiment: single round infection assay, Y181I; format: cell-based; conditions: for IC50: Human immunodeficiency virus 1; for fold-change of IC50 of the mutant relative to WT: Y181I vs WT
Protocol: as §1, §2, §3

[3] = tested on: HIV-1 RT mutant V106A/F227L; experiment: single round infection assay, V106A/F227L; format: cell-based; conditions: for fold-change of IC50 of the mutant relative to WT: V106A/F227L vs WT; for IC50: ± SD, n=4
Protocol: as §1, §2, §3

[4] = tested on: HIV-1 RT mutant K101E/M184I; experiment: single round infection assay, K101E/M184I; format: cell-based; conditions: for IC50: ± SD, n=4; for fold-change of IC50 of the mutant relative to WT: K101E/M184I vs WT
Protocol: as §1, §2, §3

[5] = tested on: HIV-1 RT mutant V106A/G190A/F227L; experiment: single round infection assay, V106A/G190A/F227L; format: cell-based; conditions: for IC50: Human immunodeficiency virus 1; for fold-change of IC50 of the mutant relative to WT: V106A/G190A/F227L vs WT
Protocol: as §1, §2, §3

[6] = Human immunodeficiency virus 1, M230L
[7] = Human immunodeficiency virus 1, E138K/M184I
[8] = Human immunodeficiency virus 1, D67E
[9] = Human immunodeficiency virus 1, K101E/M184I
[10] = Human immunodeficiency virus 1, V106A/F227L (selected by DOR)

Compound | IC50 (HIV-1 RT mutant K103N) [nM] | IC50 (HIV-1 RT mutant H221Y) [nM] | IC50 [1] [nM] | fold-change of IC50 of the mutant relative to WT [1] | IC50 (HIV-1 RT mutant M230L; [6]) [nM] | fold-change of IC50 of the mutant relative to WT (HIV-1 RT mutant M230L) | IC50 (HIV-1 RT mutant P236L) [nM] | IC50 (WT HIV-1) [nM] | IC50 (HIV-1 RT mutant K101P) [nM] | fold-change of IC50 of the mutant relative to WT (HIV-1 RT mutant K101P) | fold-change of IC50 of the mutant relative to WT [2] | fold-change of IC50 of the mutant relative to WT (HIV-1 RT mutant D67E) | IC50 (HIV-1 RT mutant D67E; [8]) [nM] | IC50 (HIV-1 RT mutant L100I) [nM] | IC50 (HIV-1 RT mutant Y181I) [nM] | fold-change of IC50 of the mutant relative to WT [3] | IC50 [4, 9] [nM] | fold-change of IC50 of the mutant relative to WT [4] | IC50 [5] [nM] | fold-change of IC50 of the mutant relative to WT [5] | also measured
Cc1cc(/C=C/C#N)cc(C)c1Nc1nc(Nc2ccc(C#N)cc2)ncc1N [compound 7] | < 7 | < 7 | 81.4 ± 8.1 | 104 | < 6.1 | 5 | 0.22 ± 0.06 | 0.78 ± 0.2 | 9 | 12 | 4 | 6 | 4.5 ± 1.1 | < 7 | 19 | < 2 | < 2.5 | < 2 | 1.4 ± 0.4 | < 2 | IC50 (HIV-1 RT mutant M230L; M230L): 4 ± 2 nM; IC50 ([2]; E138K/M184I): 2.9 ± 0.6 nM; IC50 [2, 7]: < 2.5 nM; fold-change of IC50 of the mutant relative to WT (HIV-1 RT mutant Y181I): 24; IC50 ([4]; K101E/M184I): 1.3 ± 0.6 nM
Cc1cc(/C=C/C#N)cc(C)c1Nc1nc(Nc2ccc(C#N)cc2)ncc1[N+](=O)[O-] [compound 6] | < 7 | < 7 | 12.6 | 25 | – | 6 | 0.23 ± 0.06 | 0.5 ± 0.17 | 2.5 | 5 | 2 | 3 | < 2.5 | < 7 | 55.3 | 4 | – | < 2 | 1.1 ± 0.2 | 2 | IC50 (HIV-1 RT mutant D67E; D67E): 1.7 ± 0.14 nM; fold-change of IC50 of the mutant relative to WT (HIV-1 RT mutant Y181I): 110
CC(=O)c1ccc(Nc2nc(Nc3c(C)cc(/C=C/C#N)cc3C)nc3[nH]cnc23)cc1 [compound 14] | < 7 | < 7 | > 100 | – | – | 7 | 0.15 ± 0.05 | 0.41 ± 0.08 | > 100 | – | 3 | 4 | < 2.5 | < 7 | > 100 | 12 | – | < 2 | 0.9 ± 0.18 | 2 | IC50 (HIV-1 RT mutant D67E; D67E): 1.7 ± 0.21 nM; IC50 [3, 10]: < 5 nM; IC50 ([3]; V106A/F227L (selected by DOR)): 4.9 ± 1.3 nM
Cc1cc(/C=C/C#N)cc(C)c1Nc1ncc(N)c(Nc2ccc(C#N)cc2)n1 [compound 9] | < 7 | < 7 | > 100 | – | 29.6 | 23 | 1.7 ± 0.7 | 1.3 ± 0.2 | > 100 | – | 2 | 3 | < 6 | < 7 | > 100 | 17 | < 6 | 3 | 4.6 ± 0.3 | 4 | fold-change of IC50 of the mutant relative to WT (HIV-1 RT mutant P236L): < 2; IC50 ([2]; E138K/M184I): 3 ± 0.3 nM; IC50 [2, 7]: < 6 nM; IC50 (HIV-1 RT mutant D67E; D67E): 4.2 ± 0.8 nM; IC50 ([4]; K101E/M184I): 3.3 ± 0.85 nM
COc1ccc(Cn2cnc3c(Nc4ccc(C#N)cc4)nc(Nc4c(C)cc(/C=C/C#N)cc4C)nc32)cc1 [compound 12] | < 7 | < 7 | > 100 | – | 13.8 | 21 | 0.8 ± 0.2 | 0.67 ± 0.06 | > 100 | – | 4 | 43 | 29 ± 6.9 | < 7 | > 100 | 11 | 2.7 ± 0.71 | 4 | 5.9 ± 0.14 | 9 | fold-change of IC50 of the mutant relative to WT (HIV-1 RT mutant P236L): < 2; IC50 [2, 7]: 2.4 ± 0.5 nM; IC50 [3, 10]: < 5 nM; IC50 ([3]; V106A/F227L (selected by DOR)): 7.6 ± 0.5 nM
Cc1cc(/C=C/C#N)cc(C)c1Nc1ncc([N+](=O)[O-])c(Nc2ccc(C#N)cc2)n1 [compound 8] | < 7 | < 7 | 29.8 ± 5.4 | 19 | 11.9 | 7 | 0.61 ± 0.07 | 1.6 ± 0.2 | 9.9 | 6 | < 2 | 8 | 12.7 | < 7 | 74.8 | 4 | < 6 | 4 | 2.8 ± 0.42 | < 2 | fold-change of IC50 of the mutant relative to WT (HIV-1 RT mutant Y181I): 47; IC50 [3, 10]: < 5 nM; IC50 ([3]; V106A/F227L (selected by DOR)): 6.3 ± 2 nM; IC50 ([4]; K101E/M184I): 6 ± 1.6 nM
